The target of series [1] is Recombinant full length human OGA enzyme (Homo sapiens (Human), UniProt O60502). The experiment in a line: OGA Enzyme Inhibition Biochemical Assay. The conditions noted are these: 1 nM OGA, 100 μM 4-MUGlcNAc, pH 6.4. In a few lines:
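Full-length recombinant human OGA with fluorogenic 4-MUGlcNAc in McIlvaine buffer pH 6.4, 0.01% BSA; 90 min at room temperature, glycine pH 10 quench, fluorescence Ex 355/Em 460 nm. 10-point, 4-fold dilution from 20 μM; 4-parameter variable-slope fit.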

In series [2] the target is OGA (S400 O-GLCNAC), HEK-293T cells transfected with Tau-V5 (Homo sapiens (Human), UniProt O60502). The experiment in a line: Cellular OGA-Tau MSD Assay. The format is cell-based. The conditions noted are these: HEK-293T cells, Tau-S400-GlcNAc MSD readout. In a few lines:
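HEK-293T cells transfected with OGA and Tau-V5 plasmids were treated overnight at 37° C with a 10-point, 3-fold titration from 1 uM. Lysates went onto V5-antibody MSD plates to capture Tau, probed with a Tau O-GlcNAc antibody and read by electrochemiluminescence; IC50 from a 4-parameter fit.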

Series [3] relates to P-gp (MDR1). The experiment in a line: MDR1-MDCK Efflux Ratio Assay. Format: in vitro ADME. The conditions noted are these: dog, MDCK-MDR1, pH 7.4, MDR1-MDCK cells, 2 hr, pH 7.4; read-out: MDR1-MDCK Efflux Ratio (B-A/A-B). In a few lines: (§1)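 Bidirectional (apical↔basolateral) transport across confluent MDR1-MDCK monolayers in HBSS/10 mM HEPES pH 7.4, receiver buffer with 1% BSA; 2 hr at 37° C, 5% CO2. Donor sampled at 0 and 120 min, receiver at 120 min, quantified by LC-MS/MS in triplicate. Papp, efflux ratio and percent recovery calculated.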

Series [4] in a line: Rat Liver Microsome Stability Assay. The format is in vitro ADME. The following applies: rat liver microsomes, 1 uM compound.
The test system of series [5] is MDR1-MDCK cell monolayers. The experiment in a line: MDR1-MDCK Efflux Ratio Assay. The format is in vitro ADME. The conditions noted are these: MDR1-MDCK cells, 2 hr, pH 7.4. The gist of the method: as §1

Recombinant full length human OGA enzyme, sequence (O60502 whole entry): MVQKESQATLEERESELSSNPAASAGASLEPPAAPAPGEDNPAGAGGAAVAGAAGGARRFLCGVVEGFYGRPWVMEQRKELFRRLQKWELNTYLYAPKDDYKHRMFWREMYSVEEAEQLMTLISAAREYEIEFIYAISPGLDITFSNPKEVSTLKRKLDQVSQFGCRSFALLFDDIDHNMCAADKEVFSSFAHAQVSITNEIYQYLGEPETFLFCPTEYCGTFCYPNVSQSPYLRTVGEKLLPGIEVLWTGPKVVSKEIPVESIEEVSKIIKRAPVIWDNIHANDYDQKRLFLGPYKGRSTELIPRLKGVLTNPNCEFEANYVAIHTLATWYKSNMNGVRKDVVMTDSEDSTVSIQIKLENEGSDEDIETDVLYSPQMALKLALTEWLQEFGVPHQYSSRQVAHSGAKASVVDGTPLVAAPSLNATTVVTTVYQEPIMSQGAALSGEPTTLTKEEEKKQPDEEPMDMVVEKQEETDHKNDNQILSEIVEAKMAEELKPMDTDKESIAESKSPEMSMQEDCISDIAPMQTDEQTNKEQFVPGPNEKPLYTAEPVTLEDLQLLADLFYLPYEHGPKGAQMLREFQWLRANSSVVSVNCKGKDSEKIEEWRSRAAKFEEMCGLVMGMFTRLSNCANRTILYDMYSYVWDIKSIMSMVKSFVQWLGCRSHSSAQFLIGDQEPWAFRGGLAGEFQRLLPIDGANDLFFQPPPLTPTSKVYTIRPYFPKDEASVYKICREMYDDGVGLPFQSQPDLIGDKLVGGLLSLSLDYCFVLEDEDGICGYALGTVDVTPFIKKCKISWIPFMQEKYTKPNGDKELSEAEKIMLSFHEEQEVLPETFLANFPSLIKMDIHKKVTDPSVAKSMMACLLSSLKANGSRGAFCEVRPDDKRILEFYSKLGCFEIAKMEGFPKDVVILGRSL
OGA (S400 O-GLCNAC), HEK-293T cells transfected with Tau-V5, sequence (O60502 whole entry): as above

By IC50 is commonly meant the midpoint of a concentration-inhibition curve. As for `CC(=O)Nc1ncc(CN2C[C@H](Oc3cc(OC4CCCC4)ncn3)C[C@@H]2C)s1` [Example 1-138, N-(5-(((2S,4R)-4-((6-(cyclopentyloxy)pyrimidin-4-yl)oxy)-2-methylpyrrolidin-1-yl)methyl)thiazol-2-yl)acetamide], the IC50 in series [1] is below 1 nM; in series [2], 28 nM. Further, the efflux ratio at 2 h in series [3] was 2.6. The “RLM % Qh (%)” value in series [4] came out at 87%.
The corresponding values for `CC(=O)Nc1nc(F)c(CN2C[C@H](Oc3cc(OC4COC4)ncn3)C[C@@H]2C)s1` [Example 1-140, N-(4-fluoro-5-(((2S,4R)-2-methyl-4-((6-(oxetan-3-yloxy)pyrimidin-4-yl)oxy)pyrrolidin-1-yl)methyl)thiazol-2-yl)acetamide] are below 1 nM, 4 nM, 8.4 and 43%.
As for `CC(=O)Nc1nc(F)c(CN2C[C@H](Oc3cnc(N4CCOCC4)cn3)C[C@@H]2C)s1` [Example 1-142, N-(4-fluoro-5-(((2S,4R)-2-methyl-4-((5-morpholinopyrazin-2-yl)oxy)pyrrolidin-1-yl)methyl)thiazol-2-yl)acetamide], the results for the half-inhibitory concentration (IC50) in series [1] and in series [2] were below 1 nM and 2 nM, respectively. Besides, the efflux ratio at 2 h in series [3] was determined as 8.3. Further, the “RLM % Qh (%)” value in series [4] stood at 59%.
On to `CC(=O)Nc1nc(F)c(CN2C[C@H](Oc3cc(N4CCOCC4)ccn3)C[C@@H]2C)s1` [Example 1-143, N-(4-fluoro-5-(((2S,4R)-2-methyl-4-((4-morpholinopyridin-2-yl)oxy)pyrrolidin-1-yl)methyl)thiazol-2-yl)acetamide], for which the half-maximal inhibitory concentration (IC50) in series [1] is below 1 nM; in series [2], 4 nM. In addition, the efflux ratio at 2 h in series [3] turned out to be 25.6. The “RLM % Qh (%)” value in series [4] was 75%.
The corresponding values for `[2H][C@]1(Oc2cc(OC)ncn2)C[C@H](C)N(Cc2cnc(NC(C)=O)s2)C1` [Example 1-164, N-(5-(((2S,4S)-4-((6-methoxypyrimidin-4-yl)oxy)-2-methylpyrrolidin-1-yl-4-d)methyl)thiazol-2-yl)acetamide] are 9.7 nM, 35 nM, 3.8 and 49%.
Turning to “N-(4-fluoro-5-(((2S,4R)-4-((6-methoxypyrimidin-4-yl-4,5,6-^13C3)oxy)-2 methylpyrrolidin-1-yl)methyl)thiazol-2-yl)acetamide [Example 1-153]”, the 50% inhibitory concentration (IC50) was below 1 nM in series [1] and 1 nM in series [2]. Also, the “MDR1-MDCK Efflux Ratio (B-A/A-B)” value in series [5] is on record as 2.3. In series [4], the “RLM % Qh (%)” value is 39%.

These data come from patent US20240308995A1, “O-GLYCOPROTEIN-2-ACETAMIDO-2-DEOXY-3-D-GLUCOPYRANOSIDASE INHIBITORS” (BIOGEN MA INC., priority 2018, published 2024).
